Source: ChEMBL document CHEMBL2396635, “Design, synthesis, and DNA binding characteristics of a group of orthogonally positioned diamino, N-formamido, pyrrole- and imidazole-containing polyamides” (Bioorg Med Chem, 2013)
Blank lines part the entries; values can stand above or below the molecule they belong to. Active and inactive are the calls of the source. No cut-off for these calls is given here.

What was measured:
[1] = Binding affinity to 5'-ATCGAT-3' of hairpin DNA (unknown origin) in cacodylic acid buffer at pH 6.5 at 25 degC by SPR analysis
[2] = system: Nucleic Acid; experiment: Binding affinity to 5'-AAATTT-3' of hairpin DNA (unknown origin) in cacodylic acid buffer at pH 6.5 assessed as change in melting temperature at 3 uM by thermal denaturation assay; assay type: nucleic-acid assay
[3] = Binding affinity to 5'-ATCGAT-3' of hairpin DNA (unknown origin) in 10 mM phosphate buffer at pH 6.2 at 1 mol equivalent of compound by CD titration method
[4] = Binding affinity to 5'-CTGCTTC-3' of topoisomerase 2alpha promoter (unknown origin) in Tris buffer at pH 7 at 30 uM by DNA footprinting
[5] = Binding affinity to 5'-TACGAT-3' of topoisomerase 2alpha promoter (unknown origin) in Tris buffer at pH 7 at 10 uM by DNA footprinting
[6] = Binding affinity to 5'-ATCGAT-3' DNA (unknown origin) at 80 uM at 25 degC by ITC method
[7] = system: Nucleic Acid; experiment: Binding affinity to 5'-ACGCGT-3' of hairpin DNA (unknown origin) in cacodylic acid buffer at pH 6.5 assessed as change in melting temperature at 3 uM by thermal denaturation assay; assay type: nucleic-acid assay
[8] = Selectivity for 5'-TACGAT-3' of topoisomerase 2alpha promoter (unknown origin) over 5'-CTGCTTC-3' of topoisomerase 2alpha promoter (unknown origin)
[9] = system: Nucleic Acid; experiment: Binding affinity to 5'-ATCGAT-3' of hairpin DNA (unknown origin) in cacodylic acid buffer at pH 6.5 assessed as change in melting temperature at 3 uM by thermal denaturation assay; assay type: nucleic-acid assay
[10] = Binding affinity to 5'-AAATTT-3' of 11 bp hairpin DNA oligonucleotide (unknown origin) in cacodylic acid buffer at pH 6.5 at 25 degC by SPR analysis
[11] = Binding affinity to 5'-AAATTT-3' DNA (unknown origin) at 80 uM at 25 degC by ITC method
[12] = Binding affinity to 5'-AAATTT-3' of DNA fragment (unknown origin) in Tris buffer at pH 7 at 20 uM by DNA footprinting
[13] = Binding affinity to 5'-ATCGAT-3' of 11 bp hairpin DNA oligonucleotide (unknown origin) in cacodylic acid buffer at pH 6.5 at 25 degC by SPR analysis
[14] = Binding affinity to 5'-ACGCGT-3' DNA (unknown origin) at 80 uM at 25 degC by ITC method
[15] = system: Nucleic Acid; experiment: Binding affinity to 5'-ATGCAT-3' of hairpin DNA (unknown origin) in cacodylic acid buffer at pH 6.5 assessed as change in melting temperature at 3 uM by thermal denaturation assay; assay type: nucleic-acid assay
[16] = Binding affinity to 5'-AAATTT-3' of hairpin DNA (unknown origin) in cacodylic acid buffer at pH 6.5 at 25 degC by SPR analysis
[17] = Binding affinity to 5'-ACGCGT-3' of hairpin DNA (unknown origin) in cacodylic acid buffer at pH 6.5 at 25 degC by SPR analysis
[18] = Binding affinity to 5'-ATGCAT-3' of 11 bp hairpin DNA oligonucleotide (unknown origin) in cacodylic acid buffer at pH 6.5 at 25 degC by SPR analysis
[19] = Binding affinity to 5'-AAATTT-3' of hairpin DNA (unknown origin) in 10 mM phosphate buffer at pH 6.2 at 1 mol equivalent of compound by CD titration method
[20] = Binding affinity to 5'-AAATTT-3' of DNA fragment (unknown origin) in Tris buffer at pH 7 at 30 uM by DNA footprinting
[21] = Binding affinity to 5'-ACGCGT-3' of 11 bp hairpin DNA oligonucleotide (unknown origin) in cacodylic acid buffer at pH 6.5 at 25 degC by SPR analysis
[22] = Binding affinity to 5'-ATGCAT-3' DNA (unknown origin) at 80 uM at 25 degC by ITC method
[23] = Binding affinity to 5'-ACGCGT-3' of DNA fragment (unknown origin) in Tris buffer at pH 7 at 0.05 uM by DNA footprinting
[24] = Binding affinity to 5'-ACGCGT-3' of hairpin DNA (unknown origin) in 10 mM phosphate buffer at pH 6.2 at 1 mol equivalent of compound by CD titration method
[25] = Binding affinity to 5'-ATGCAT-3' of hairpin DNA (unknown origin) in cacodylic acid buffer at pH 6.5 at 25 degC by SPR analysis
[26] = Binding affinity to 5'-ACGCGT-3' of DNA fragment (unknown origin) in Tris buffer at pH 7 at 1 uM by DNA footprinting
[27] = Binding affinity to 5'-ACTAGT-3' of DNA fragment (unknown origin) in Tris buffer at pH 7 at 1 uM by DNA footprinting
[28] = Binding affinity to 5'-ATGCAT-3' of hairpin DNA (unknown origin) in 10 mM phosphate buffer at pH 6.2 at 1 mol equivalent of compound by CD titration method
[29] = Binding affinity to 5'-ATGCAT-3' of DNA fragment (unknown origin) in Tris buffer at pH 7 at 1 uM by DNA footprinting

Ke [1]: < 1 ×10⁵ /M
ΔTm [2]: 10 °C
Activity [3]: Active
Activity [4]: Active
Activity [5]: Active
Activity [6]: Active
ΔTm [7]: 0 °C
Selectivity ratio [8]: 3
ΔTm [9]: 0 °C
SMILES: CN(C)CCCNC(=O)c1cc(NC(=O)c2nc(NC(=O)c3cc(NC=O)cn3CCCN)cn2C)cn1C

ΔTm [2]: 9 °C
Ke [10]: 3.2 ×10⁶ /M
ΔTm [9]: 1 °C
Activity [11]: Active
Activity [12]: Active
SMILES: CN(C)CCCNC(=O)c1cc(NC(=O)c2cc(NC(=O)c3cc(NC=O)cn3C)cn2C)cn1C

ΔTm [2]: 25 °C
Activity [19]: Active
Ke [16]: 4.8 ×10⁷ /M
ΔTm [7]: 0 °C
ΔTm [9]: 10 °C
Activity [20]: Active
Activity [11]: Active
Activity [12]: Active
SMILES: CN(C)CCCNC(=O)c1cc(NC(=O)c2cc(NC(=O)c3cc(NC=O)cn3C)cn2CCCN)cn1C

Ke [1]: 2.7 ×10⁶ /M
ΔTm [2]: 0 °C
Activity [26]: Active
Activity [27]: Active
Activity [28]: Active
ΔTm [15]: 26 °C
Ke [17]: 2.3 ×10⁶ /M
ΔTm [7]: 0 °C
ΔTm [9]: 7 °C
Ke [25]: 1.3 ×10⁸ /M
Activity [22]: Active
Activity [29]: Active
SMILES: CN(C)CCCNC(=O)c1cc(NC(=O)c2cc(NC(=O)c3nc(NC=O)cn3C)cn2CCCN)cn1C

Second part, the molecule before the results:

SMILES: CN(C)CCCNC(=O)c1cc(NC(=O)c2nc(NC(=O)c3cc(NC=O)cn3C)cn2C)cn1C
Ke [1]: 2 ×10⁵ /M
Activity [4]: Active
Activity [5]: Active
Activity [6]: Active
ΔTm [7]: 3 °C
Selectivity ratio [8]: 3
ΔTm [9]: 0 °C

SMILES: CN(C)CCNC(=O)c1nc(NC(=O)c2cc(NC(=O)c3nc(NC=O)cn3C)cn2C)cn1C
Ke [13]: 1 ×10⁵ /M
Activity [14]: Active
ΔTm [2]: 1 °C
ΔTm [15]: 9 °C
Ke [16]: 5.3 ×10⁴ /M
Ke [17]: 5.4 ×10⁷ /M
ΔTm [7]: 9 °C
ΔTm [9]: 1 °C
Ke [18]: 1.2 ×10⁷ /M

SMILES: CN(C)CCCNC(=O)c1cc(NC(=O)c2cc(NC(=O)c3nc(NC=O)cn3C)cn2C)cn1C
Ke [13]: 9.4 ×10⁴ /M
Ke [21]: 8.8 ×10⁴ /M
ΔTm [15]: 11 °C
ΔTm [7]: 2 °C
ΔTm [9]: 3 °C
Ke [18]: 1.2 ×10⁷ /M
Activity [22]: Active

SMILES: CN(C)CCNC(=O)c1nc(NC(=O)c2cc(NC(=O)c3nc(NC=O)cn3C)cn2CCCN)cn1C
Ke [1]: 1.7 ×10⁶ /M
Activity [14]: Active
ΔTm [2]: 10 °C
ΔTm [15]: 24 °C
Ke [17]: 2.4 ×10⁸ /M
Activity [23]: Active
ΔTm [7]: > 24 °C
ΔTm [9]: 11 °C
Activity [24]: Active
Ke [25]: 3.5 ×10⁷ /M
